Reference: article PMC6759763, “Porphyromonas gingivalis Tyrosine Phosphatase Php1 Promotes Community Development and Pathogenicity” (mBio, 2019)

Columns and labels:
FPtk1 = molecular target: T1, FPtk1 (Porphyromonas gingivalis, UniProt B2RKZ8); details: 5 mM ATP, 1 h; Php1 as phosphoacceptor
T1 construct: gene PGN_1524

Php1 [1] = molecular target: T2, Php1 (Porphyromonas gingivalis, UniProt B2RKZ9); parameters: gene PGN_1525; details: 50 mM pNPP, pH 8.0, 37 °C, 1 mM MnCl2; also inhibits with phosphotyrosine as substrate
T2 sequence (B2RKZ9 entry or part of it): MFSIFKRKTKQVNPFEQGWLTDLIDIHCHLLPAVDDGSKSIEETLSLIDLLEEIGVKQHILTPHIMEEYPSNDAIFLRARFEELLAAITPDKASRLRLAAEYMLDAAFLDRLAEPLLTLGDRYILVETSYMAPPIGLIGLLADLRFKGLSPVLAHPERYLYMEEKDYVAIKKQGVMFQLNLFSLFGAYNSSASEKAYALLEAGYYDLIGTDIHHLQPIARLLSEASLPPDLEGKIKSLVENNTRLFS

Ltp1 = molecular target: T3, Ltp1 (Porphyromonas gingivalis, UniProt B2RI15); test: phosphatase inhibition, pNPP hydrolysis; type: biochemical; details: pNPP as substrate; DMSO vehicle
T3 construct: gene PGN_0491
T3 sequence (B2RI15 entry or part of it): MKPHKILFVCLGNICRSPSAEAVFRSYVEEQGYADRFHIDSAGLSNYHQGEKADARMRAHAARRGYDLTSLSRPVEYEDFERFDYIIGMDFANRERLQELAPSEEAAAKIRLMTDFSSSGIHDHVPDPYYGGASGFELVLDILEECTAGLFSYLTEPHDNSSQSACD

Php1 [2] = molecular target: T2, Php1; test: p-nitrophenol release ([…] nm); type: biochemical; parameters: gene PGN_1525; php1 coding region, GST-tagged (pGEX-4T-1) or His-tagged (pLATE51), E. coli BL21(DE3) Star; 247 residues, 28 kDa; details: 50 mM pNPP, pH 8.0, 37 °C, 1 mM MnCl2
Php1 [3] = molecular target: T2, Php1; parameters: gene PGN_1525; details: 200 μM phosphotyrosine, pH 8.0, 37 °C, 1 mM MnCl2

T1 sequence (B2RKZ8 entry or part of it): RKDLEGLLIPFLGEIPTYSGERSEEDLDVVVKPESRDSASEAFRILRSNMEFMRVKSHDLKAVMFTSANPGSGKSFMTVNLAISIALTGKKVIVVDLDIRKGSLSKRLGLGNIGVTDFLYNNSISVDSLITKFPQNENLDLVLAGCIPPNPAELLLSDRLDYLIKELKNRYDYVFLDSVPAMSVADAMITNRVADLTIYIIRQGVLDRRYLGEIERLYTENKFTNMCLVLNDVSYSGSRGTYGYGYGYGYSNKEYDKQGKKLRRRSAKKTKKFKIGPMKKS

Nc1ncnc2c1ncn2[C@@H]1O[C@H](COP(=O)(O)OP(=O)(O)OP(=O)(O)O)[C@@H](O)[C@H]1O [ATP]
anti-phosphotyrosine immunoblot of Php1 phosphorylation (FPtk1): Tyrosine phosphorylation of Php1 increased after incubation with FPtk1 in the presence of ATP

[O]=[V]([OH])([OH])[OH] [Na3VO4, sodium orthovanadate]
inhibition (Php1 [1]): (pNPP) was inhibited by the tyrosine phosphatase inhibitor Na3VO4

Nc1ccc(C(=O)O)cc1 [pABA, para-amino benzoic acid]
% activity relative to no inhibitor (Ltp1): Both H2O2 and pABA inhibited Ltp1 but not Php1

O=[N+]([O-])c1ccc(OP(=O)(O)O)cc1 [pNPP, p-nitrophenyl phosphate]
p-nitrophenol release (405 nm) (Php1 [2]): Php1 phosphatase activity on p-nitrophenyl phosphate (pNPP)

N[C@@H](Cc1ccc(OP(=O)(O)O)cc1)C(=O)O [phosphotyrosine]
malachite green phosphate release (Php1 [3]): Php1 was most active against phosphotyrosine
